Like-named read-outs stand apart in the source and are kept apart here.
Experiments:
[1] = target: KRas(G12V) (Homo sapiens (Human), UniProt P01116, G12V); experiment: KRas(G12V) GDP HTRF (BODIPY-GDP exchange TR-FRET); type: biochemical
[2] = target: KRas (Homo sapiens (Human), UniProt P01116); experiment: KRas GDP HTRF (BODIPY-GDP exchange TR-FRET); type: biochemical
How it was run: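 Inhibition of SOS1-mediated exchange of BODIPY-GDP on KRAS G12D, started with 3 nM recombinant human SOS1 and 300 nM BODIPY-GDP and read after 60 min. TR-FRET excitation 337 nm, ratio 520/490 nm ×10,000. IC50 from 4-parameter Hill fit of normalized data.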

[3] = system: SW480 cells; experiment: SW480 proliferation assay; type: cell-based; conditions: read-out: SW480 Prolif IC50 (G12V)
[4] = system: PC-9 cells; experiment: PC9 proliferation assay; type: cell-based, human; conditions: read-out: PC9 Prolif IC50 (G12V)

Chain of KRas (P01116-2 other isoform, or with tags, fused parts or gaps): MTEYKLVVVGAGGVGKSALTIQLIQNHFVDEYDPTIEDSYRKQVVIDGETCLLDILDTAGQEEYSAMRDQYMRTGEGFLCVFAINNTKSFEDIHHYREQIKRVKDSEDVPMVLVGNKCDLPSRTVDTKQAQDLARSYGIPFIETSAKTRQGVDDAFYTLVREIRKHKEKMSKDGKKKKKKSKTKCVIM
Chain of KRas(G12V) (P01116-2 other isoform, or with tags, fused parts or gaps G12V): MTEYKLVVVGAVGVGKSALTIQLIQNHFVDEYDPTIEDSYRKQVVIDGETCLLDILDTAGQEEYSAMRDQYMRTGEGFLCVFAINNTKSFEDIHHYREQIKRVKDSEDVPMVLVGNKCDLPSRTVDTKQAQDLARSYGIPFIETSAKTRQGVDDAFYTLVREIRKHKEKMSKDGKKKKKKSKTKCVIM

Structure (SMILES)	IC50 [1] [nM]	IC50 [2] [nM]	IC50 ([3]; Homo sapiens, SW480, SW480) [nM]	IC50 ([4]; Homo sapiens, PC-9, PC9) [nM]	IC50 ([3]; SW480) [nM]	IC50 ([4]; PC9) [nM]
Cc1cc(N)nc(-c2c(Cl)c3c4c(nc(OC[C@H]5CC[C@@H]6COC(F)(F)CN56)nc4c2F)N([C@H](C)c2cccnc2N)CCO3)c1C(F)(F)F (atropisomer, axis not shown; (aR)) [Example 91b, 6-((R)-4-((R)-1-(2-aminopyridin-3-yl)ethyl)-8-chloro-2-(((6R,8aR)-3,3-difluorohexahydro-1H-pyrrolo[2,1-c][1,4]oxazin-6-yl)methoxy)-10-fluoro-5,6-dihydro-4H-[1,4]oxazepino[5,6,7-de]quinazolin-9-yl)-4-methyl-5-(trifluoromethyl)pyridin-2-amine]	0.81	2.2	140	6400		
Cc1cc(N)nc(-c2c(Cl)c3c4c(nc(OC[C@H]5CC[C@@H]6COCCN65)nc4c2F)N([C@H](C)c2cncnc2N)CCO3)c1C(F)(F)F (atropisomer, axis not shown; (aR)) [Example 102b, 5-((R)-1-((R)-9-(6-amino-4-methyl-3-(trifluoromethyl)pyridin-2-yl)-8-chloro-10-fluoro-2-(((6R,8aR)-hexahydro-1H-pyrrolo[2,1-c][1,4]oxazin-6-yl)methoxy)-5,6-dihydro-4H-[1,4]oxazepino[5,6,7-de]quinazolin-4-yl)ethyl)pyrimidin-4-amine]	0.17	0.49	100	8700		
Cc1cc(N)nc(-c2c(Cl)c3c4c(nc(OC[C@H]5CC[C@@H]6COCCCN65)nc4c2F)N([C@H](C)c2cccnc2N)CCO3)c1C(F)(F)F (atropisomer, axis not shown; (aR)) [Example 120b, 6-((R)-4-((R)-1-(2-aminopyridin-3-yl)ethyl)-8-chloro-10-fluoro-2-(((7R,9aR)-hexahydro-1H,3H-pyrrolo[2,1-c][1,4]oxazepin-7-yl)methoxy)-5,6-dihydro-4H-[1,4]oxazepino[5,6,7-de]quinazolin-9-yl)-4-methyl-5-(trifluoromethyl)pyridin-2-amine]	0.08	0.2	20	3000		
Cc1cc(N)nc(-c2c(Cl)c3c4c(nc(OC[C@@]56CCCN5C[C@H](F)C6)nc4c2F)N([C@H](C)c2cncc(N)c2)CCO3)c1C(F)(F)F (atropisomer, axis not shown; (aS)) [Example 45, (R)-6-(4-((S)-1-(5-aminopyridin-3-yl)ethyl)-8-chloro-10-fluoro-2-(((2R,7aS)-2-fluorotetrahydro-1H-pyrrolizin-7a(5H)-yl)methoxy)-5,6-dihydro-4H-[1,4]oxazepino[5,6,7-de]quinazolin-9-yl)-4-methyl-5-(trifluoromethyl)pyridin-2-amine]	0.23	0.27	50	6000		
Cc1cc(N)nc(-c2c(Cl)c3c4c(nc(OC[C@@]56CCCN5C[C@H](F)C6)nc4c2F)N([C@H](C)c2cccnc2N)CCO3)c1C(F)(F)F (atropisomer, axis not shown; (aS)) [Example 48, 6-(4-((R)-1-(2-aminopyridin-3-yl)ethyl)-8-chloro-10-fluoro-2-(((2R,7aS)-2-fluoro-hexahydro-1H-pyrrolizin-7a-yl)methoxy)-5,6-dihydro-4H-[1,4]oxazepino[5,6,7-de]quinazolin-9-yl)-4-methyl-5-(trifluoromethyl)pyridin-2-amine]	0.04	0.091			1.4	1500
Cc1cc(N)nc(-c2c(Cl)c3c4c(nc(OC[C@@]56CCCN5C[C@H](F)C6)nc4c2F)N([C@@H]2CCCc4ccnc(N)c42)CCO3)c1C(F)(F)F (atropisomer, axis not shown; (aS)) [Example 65a, (R)-8-((R)-9-(6-amino-4-methyl-3-(trifluoromethyl)pyridin-2-yl)-8-chloro-10-fluoro-2-(((2R,7aS)-2-fluorotetrahydro-1H-pyrrolizin-7a(5H)-yl)methoxy)-5,6-dihydro-4H-[1,4]oxazepino[5,6,7-de]quinazolin-4-yl)-5,6,7,8-tetrahydroisoquinolin-1-amine]	0.1	0.25	2.6	940		
Cc1cc(N)nc(-c2c(F)c3c4c(nc(OC[C@@]56CCCN5C[C@H](F)C6)nc4c2F)N([C@H](C)c2cccnc2N)CCO3)c1C(F)(F)F (atropisomer, axis not shown; (aS)) [Example 66a, 6-((R)-4-((R)-1-(2-aminopyridin-3-yl)ethyl)-8,10-difluoro-2-(((2R,7aS)-2-fluorotetrahydro-1H-pyrrolizin-7a(5H)-yl)methoxy)-5,6-dihydro-4H-[1,4]oxazepino[5,6,7-de]quinazolin-9-yl)-4-methyl-5-(trifluoromethyl)pyridin-2-amine]	0.05	0.12	3.1	2800		
Cc1c(F)c(N)nc(-c2c(Cl)c3c4c(nc(OC[C@@]56CCCN5C[C@H](F)C6)nc4c2F)N([C@H](C)c2cccnc2N)CCO3)c1C(F)(F)F (atropisomer, axis not shown; (aS)) [Example 75a, 6-((R)-4-((R)-1-(2-aminopyridin-3-yl)ethyl)-8-chloro-10-fluoro-2-(((2R,7aS)-2-fluorotetrahydro-1H-pyrrolizin-7a(5H)-yl)methoxy)-5,6-dihydro-4H-[1,4]oxazepino[5,6,7-de]quinazolin-9-yl)-3-fluoro-4-methyl-5-(trifluoromethyl)pyridin-2-amine]	0.05	0.066	1.1	890		
CNc1cnc(N)c([C@@H](C)N2CCOc3c(Cl)c(-c4nc(N)cc(C)c4C(F)(F)F)c(F)c4nc(OC[C@@]56CCCN5C[C@H](F)C6)nc2c34)c1 (atropisomer, axis not shown; (aS)) [Example 79, 3-((R)-1-((R)-9-(6-amino-4-methyl-3-(trifluoromethyl)pyridin-2-yl)-8-chloro-10-fluoro-2-(((2R,7aS)-2-fluorotetrahydro-1H-pyrrolizin-7a(5H)-yl)methoxy)-5,6-dihydro-4H-[1,4]oxazepino[5,6,7-de]quinazolin-4-yl)ethyl)-N^5-methylpyridine-2,5-diamine]	0.22	0.34	2.4	3100		
Cc1cc(N)nc(-c2c(Cl)c3c4c(nc(OC[C@@]56CCCN5C[C@H](F)C6)nc4c2F)N([C@@H](C)c2nccnc2N)CCO3)c1C(F)(F)F (atropisomer, axis not shown; (aS)) [Example 80, 3-((S)-1-((R)-9-(6-amino-4-methyl-3-(trifluoromethyl)pyridin-2-yl)-8-chloro-10-fluoro-2-(((2R,7aS)-2-fluorotetrahydro-1H-pyrrolizin-7a(5H)-yl)methoxy)-5,6-dihydro-4H-[1,4]oxazepino[5,6,7-de]quinazolin-4-yl)ethyl)pyrazin-2-amine]	8.2	23.6	940	1200		
Cc1cc(N)nc(-c2c(Cl)c3c4c(nc(OC[C@@]56CCCN5C[C@H](F)C6)nc4c2F)N([C@H](C)c2cncnc2N)CCO3)c1C(F)(F)F (atropisomer, axis not shown; (aS)) [Example 81, 5-((R)-1-((R)-9-(6-amino-4-methyl-3-(trifluoromethyl)pyridin-2-yl)-8-chloro-10-fluoro-2-(((2R,7aS)-2-fluorotetrahydro-1H-pyrrolizin-7a(5H)-yl)methoxy)-5,6-dihydro-4H-[1,4]oxazepino[5,6,7-de]quinazolin-4-yl)ethyl)pyrimidin-4-amine]	0.067	0.0659	6.1	7800		
